Reference: publication PMC10190849, “Rationally designed modular drug delivery platform based on intracellular peptide self‐assembly” (Exploration, 2021)
No end group written: not given here. *: point of attachment. FITC = O=C1OC2(c3ccc(O)cc3Oc3cc(O)ccc32)c2ccc(NC(=S)*)cc21

Columns and labels:
[1] = test system: XIAP positive cell lines (H460, 786-O, EJ, RT112); test: CLSM imaging of cells coincubated with MDS molecules, XIAP positive cell lines; type: cell-based; conditions: 50 μM, 37 °C, 1 h, PBS washing
Excerpt: (§1) Drug delivery efficacy is one of the decisive factors for evaluating the drug delivery systems.
In order to evaluate the drug delivery efficacy, we directly observed the Py fluorescence by CLSM imaging. […] In addition, we performed the cell section analysis and directly observed the morphology of assemblies intracellularly (Figure 8D). The intracellular formed nanofibers confirmed the controllable in situ assembly of MDS. All those results verified that the drug delivery system was feasible for highly efficient drug delivery.
Cell culturing and CLSM imaging: H460, 786-O, L929 cell lines and EJ, RT112 cell lines were cultured in PRMI-1640 and DMEM respectively with 10% (v: v) fetal bovine serum, 1% penicillin–streptomycin in an incubator (Thermo Scientific) at 37 °C with 5% CO2 and 95% relative humidity. For observing the selectivity of MDS by CLSM imaging, all the cell lines were seeded with 1 x 10^5 cells per well, and cultured for 24 h, the cells were incubated with 50 μM Pβ-R4C and Pβ-R4F respectively at 37 °C for 1 h and followed by PBS washing. Subsequently, the cells were stained with Hoechst 33342 (1 mg ml^-1) at 37 °C for 10 min. Finally, the cells were washed by PBS twice and immediately observed under confocal laser scanning microscopy. […]

[2] = test system: XIAP negative cell line L929; test: CLSM imaging of cells coincubated with MDS molecules, XIAP negative cell line; type: cell-based; conditions: 50 μM, 37 °C, 1 h, PBS washing
Experimental: as §1
Cell culturing and CLSM imaging: H460, 786-O, L929 cell lines and EJ, RT112 cell lines were cultured in PRMI-1640 and DMEM respectively with 10% (v: v) fetal bovine serum, 1% penicillin–streptomycin in an incubator (Thermo Scientific) at 37 °C with 5% CO2 and 95% relative humidity. For observing the selectivity of MDS by CLSM imaging, all the cell lines were seeded with 1 x 10^5 cells per well, and cultured for 24 h, the cells were incubated with 50 μM Pβ-R4C and Pβ-R4F respectively at 37 °C for 1 h and followed by PBS washing. Subsequently, the cells were stained with Hoechst 33342 (1 mg ml^-1) at 37 °C for 10 min. Finally, the cells were washed by PBS twice and immediately observed under confocal laser scanning microscopy. For observing the selective drug accumulation by CLSM imaging, the H460 cell and L929 cells were seeded with 1 x 10^5 cells per well, and cultured for 24 h, then cells were incubated with 50 μM Pβ-R4C-D for 1 h, followed by PBS washing and observed by CLSM.

[3] = ThT (Thioflavin T) assay, critical aggregation/assembly concentration and dispersibility; type: physicochemical; conditions: dose dependent assembling profile after incubation with ThT, Figure 3A
Experimental: For intracellular self-assembly, the rapid transformation from dispersed state to aggregate state in desired site is required. In other words, the molecules need to be stable monomeric states at other locations and present self-assembled states at the required locations. Therefore, location-specific self-assembly characteristics are the decisive factors for the success of molecular design. […] Then, different modification on four domains were carried out to evaluate its dispersity and self-assembly properties. We carried out ThT (Thioflavin T) analytic assay to evaluate whether those predesigned molecules presented relatively dispersed state. ThT is a sensitive probe to the lamellar β-sheet structure. When exposed to the lamellar β-sheet structure, ThT fluorescence was enhanced due to inserting into the lamellar structure.^[ [17] ^] […] In order to validate our hypophysis and quantitively determine the solubility of those molecules, we calculated the critical assembly concentration (CAC) of those molecules based on the ThT analysis. […] However, other molecules with R4 domain modifications all presented a higher CAC with ≥400 μM. […] ThT assay: the ThT assay was utilized to calculate the critical assembling concentration. […] Next, the fluorescence of ThT was measured with the excitation wavelength with 450 nm. Finally, the fluorescence intensity was recorded and normalized.

[4] = TEM imaging of assembled morphology and diameters; type: physicochemical; conditions: result in words
Excerpt: To further confirm our speculation, we observe the assembled morphology of these molecules under its CAC concentrations. […] As those results indicated, the modification position of fluorescence molecules largely influenced the dispersity of designed molecules. […] As a threshold, the %SASA value around 75% distinguishes between assembly and soluble states. Thus, the optimal choice for modification position is decisive in %SASA regulation for successful molecular design.
In order to achieve a highly ordered superstructure in vivo, it is necessary to transfer the precursor with higher CAC content to the monomer with lower CAC content at the desired position under the trigger of some chemical reactions. In this work, the pre‐designed molecules trigger the conversion of precursors to monomers transformation through enzyme‐directed hydrolysis, and the substrate (DEVD) was cleaved by caspase 3/7. Due to the increased hydrophobicity and conformational changes, the resultant product further self‐assembled into the required superstructure. The previous study in this work confirmed five molecules with higher dispersity (Pβ‐R4C, Pα‐R4C, Pβ‐R4F, Pβ‐R4P, Pβ‐R4C‐D). Here, we studied the self‐assembly properties of […] related residues of these highly soluble molecules (R‐R4C, R‐R4F, R‐R4P, R‐R4C‐D).^[ [21] ^] […]

Row | molecular concentration at which ThT fluorescence obviously increased [3] | assembled morphology (TEM) [4] | Substance | fluorescent signal in cells (CLSM) [1] | fluorescent signal in cells (CLSM) [2]
1 | – | – | AVPIAQKDEVDKLVFFAEC(FITC)G [Pβ-R4F, Pβ with FITC in R4 domain] | strong Cy and FITC fluorescent signal | No obvious fluorescent signal
2 | – | – | AVPIAQKDEVDKLVFFAEC(Cy)G [Pβ-R4C, Pβ with fluorescent molecule Cy linked in R4 domain] | strong Cy and FITC fluorescent signal | No obvious fluorescent signal
3 | 200 µM | nanofibrous structures | AVPIAQKDEVDGC(Cy)KLVFFAEG [Pβ-R2C, Pβ with GC on R2 domain conjugated with Cy] | – | –
